In patent US7473790B2 (Pfizer Inc., priority 2003, dated 2009):

molecular target: T1, HCV polymerase (Hepatitis C virus genotype 1b, UniProt P26663); assay: HCV polymerase primer/template-directed transcription assay (32P-GTP incorporation, filter binding); format: biochemical; details: recombinant HCV polymerase; 30 minutes at 30° C.; concentration giving 50% inhibition of polymerase-directed transcription; read-out: IC50
T1 construct: 2.5 pmoles (0.15 μg) HCV polymerase protein in a final volume of 75 μL
Method in brief: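 IC50s come from triplicate cpm, refit with an enzyme-concentration (30 nM) correction when under 200 nM. Reactions ran 30 min at 30° C in Tris pH 7.2 with MgCl2, 1 μM GTP spiked with α-32P-GTP, biotin-dG12 primer and poly(rC)300 template, with 1% DMSO. Incorporated label was collected on DE filtermats and counted.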

T1 sequence (P26663 2420-3010): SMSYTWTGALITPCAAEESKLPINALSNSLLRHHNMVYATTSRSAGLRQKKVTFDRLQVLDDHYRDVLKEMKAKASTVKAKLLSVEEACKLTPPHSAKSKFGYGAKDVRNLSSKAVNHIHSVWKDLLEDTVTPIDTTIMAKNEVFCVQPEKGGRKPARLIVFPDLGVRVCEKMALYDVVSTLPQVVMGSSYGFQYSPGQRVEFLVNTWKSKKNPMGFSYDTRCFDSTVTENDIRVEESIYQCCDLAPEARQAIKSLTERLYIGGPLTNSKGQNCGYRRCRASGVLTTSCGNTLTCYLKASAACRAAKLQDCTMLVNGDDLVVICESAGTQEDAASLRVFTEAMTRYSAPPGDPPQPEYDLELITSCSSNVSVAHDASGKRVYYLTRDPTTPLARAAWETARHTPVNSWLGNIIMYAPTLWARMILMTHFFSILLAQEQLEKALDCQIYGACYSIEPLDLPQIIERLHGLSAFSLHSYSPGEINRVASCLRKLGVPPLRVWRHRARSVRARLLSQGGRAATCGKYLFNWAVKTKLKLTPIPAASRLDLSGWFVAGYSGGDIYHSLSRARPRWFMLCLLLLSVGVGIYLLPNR

**Q.** With `CCc1cc(CCC2(C3CCCC3)CC(O)=C(Cc3nc4nc(C)cc(C)n4n3)C(=O)O2)c(OC)cc1O` (centres unmarked) [A(150), 6-Cyclopentyl-3-(5,7-dimethyl-[1,2,4]triazolo[1,5-a]pyrimidin-2-ylmethyl)-6-[2-(5-ethyl-4-hydroxy-2-methoxy-phenyl)-ethyl]-4-hydroxy-5,6-dihydro-pyran-2-one] as the compound, how does the IC50 read?
**A.** 7 nM

**Q.** `CCc1cc(CCC2(C3CCCC3)CC(=O)CC(=O)O2)c(OC)cc1O` (centres unmarked) [A(151), 6-Cyclopentyl-6-[2-(5-ethyl-4-hydroxy-2-methoxy-phenyl)-ethyl]-dihydro-pyran-2,4-dione] was tested. Which IC50 did it give?
**A.** 300 nM

**Q.** With `CCc1cc(CCC2(C3CCCC3)CC(O)=C(Cc3nc[nH]c3C)C(=O)O2)c(OC)cc1O` (centres unmarked) [A(156), 6-Cyclopentyl-6-[2-(5-ethyl-4-hydroxy-2-methoxy-phenyl)-ethyl]-4-hydroxy-3-(5-methyl-1H-imidazol-4-ylmethyl)-5,6-dihydro-pyran-2-one] as the compound, how does the IC50 read?
**A.** 21 nM

**Q.** With `CCc1nc(CC2=C(O)CC(CCc3cc(CC)c(O)cc3OC)(C3CCCC3)OC2=O)c(C)[nH]1` (centres unmarked) [A(157), 6-Cyclopentyl-6-[2-(5-ethyl-4-hydroxy-2-methoxy-phenyl)-ethyl]-3-(2-ethyl-5-methyl-1H-imidazol-4-ylmethyl)-4-hydroxy-5,6-dihydro-pyran-2-one] as the compound, how does the IC50 read?
**A.** 65 nM

**Q.** How did the IC50 turn out when `CCc1cc(CCC2(C3CCCC3)CC(O)=C(Cc3nc4ncc(Cl)cn4n3)C(=O)O2)c(C)cc1O` (centres unmarked) [A(160), 3-(6-Chloro-[1,2,4]triazolo[1,5-a]pyrimidin-2-ylmethyl)-6-cyclopentyl-6-[2-(5-ethyl-4-hydroxy-2-methyl-phenyl)-ethyl]-4-hydroxy-5,6-dihydro-pyran-2-one] was run?
**A.** 29 nM

**Q.** Which IC50 does the source give for `CCc1cc(CCC2(C3CCCC3)CC(O)=C(Cc3nc4ncc(Cl)cn4n3)C(=O)O2)c(F)cc1O` (centres unmarked) [A(161), 3-(6-Chloro-[1,2,4]triazolo[1,5-a]pyrimidin-2-ylmethyl)-6-cyclopentyl-6-[2-(5-ethyl-2-fluoro-4-hydroxy-phenyl)-ethyl]-4-hydroxy-5,6-dihydro-pyran-2-one] here?
**A.** 8 nM

**Q.** How did the IC50 turn out when `CCc1cc(CCC2(C3CCCC3)CC(O)=C(Cc3nc4nc(C)cc(C)n4n3)C(=O)O2)ccn1` (centres unmarked) [A(162), 6-Cyclopentyl-3-(5,7-dimethyl-[1,2,4]triazolo[1,5-a]pyrimidin-2-ylmethyl)-6-[2-(2-ethyl-pyridin-4-yl)-ethyl]-4-hydroxy-5,6-dihydro-pyran-2-one] was run?
**A.** 10 nM

**Q.** For `CCc1cc(CCC2(C3CCCC3)CC(=O)CC(=O)O2)ccn1` (centres unmarked) [A(163), 6-Cyclopentyl-6-[2-(2-ethyl-pyridin-4-yl)-ethyl]-dihydro-pyran-2,4-dione], which IC50 is on record?
**A.** 1900 nM

**Q.** How did the IC50 turn out when `CCc1cc(CCC2(C3CCCC3)CC(O)=C(Cc3nc4ncc(Cl)cn4n3)C(=O)O2)ccn1` (centres unmarked) [A(164), 3-(6-Chloro-[1,2,4]triazolo[1,5-a]pyrimidin-2-ylmethyl)-6-cyclopentyl-6-[2-(2-ethyl-pyridin-4-yl)-ethyl]-4-hydroxy-5,6-dihydro-pyran-2-one] was run?
**A.** 42 nM

**Q.** With `CCc1ccc(O)c(CCC2(C3CCCC3)CC(O)=C(Cc3nc4nc(C)cc(C)n4n3)C(=O)O2)c1` (centres unmarked) [A(166), 6-Cyclopentyl-3-(5,7-dimethyl-[1,2,4]triazolo[1,5-a]pyrimidin-2-ylmethyl)-6-[2-(5-ethyl-2-hydroxy-phenyl)-ethyl]-4-hydroxy-5,6-dihydro-pyran-2-one] as the compound, how does the IC50 read?
**A.** 1 nM

**Q.** For `CCc1ccc(O)c(CCC2(C3CCCC3)CC(=O)CC(=O)O2)c1` (centres unmarked) [A(169), 6-Cyclopentyl-6-[2-(5-ethyl-2-hydroxy-phenyl)-ethyl]-dihydro-pyran-2,4-dione], which IC50 is on record?
**A.** 400 nM

**Q.** For `CCc1ccc(O)c(CCC2(C3CCCC3)CC(O)=C(Cc3nc4ncc(Cl)cn4n3)C(=O)O2)c1` (centres unmarked) [A(170), 3-(6-Chloro-[1,2,4]triazolo[1,5-a]pyrimidin-2-ylmethyl)-6-cyclopentyl-6-[2-(5-ethyl-2-hydroxy-phenyl)-ethyl]-4-hydroxy-5,6-dihydro-pyran-2-one], which IC50 is on record?
**A.** 10 nM

**Q.** `CCc1ccc(O)c(CCC2(C3CCCC3)CC(O)=C(Cc3nc4ncc(C)cn4n3)C(=O)O2)c1` (centres unmarked) [A(173), 6-Cyclopentyl-6-[2-(5-ethyl-2-hydroxy-phenyl)-ethyl]-4-hydroxy-3-(6-methyl-[1,2,4]triazolo[1,5-a]pyrimidin-2-ylmethyl)-5,6-dihydro-pyran-2-one] was tested. Which IC50 did it give?
**A.** 4 nM

**Q.** Which IC50 does the source give for `CCc1ccc(O)c(CCC2(C3CCCC3)CC(O)=C(Cc3nc4ncccn4n3)C(=O)O2)c1` (centres unmarked) [A(176), 6-Cyclopentyl-6-[2-(5-ethyl-2-hydroxy-phenyl)-ethyl]-4-hydroxy-3-[1,2,4]triazolo[1,5-a]pyrimidin-2-ylmethyl-5,6-dihydro-pyran-2-one] here?
**A.** 6 nM

**Q.** Which IC50 does the source give for `CCc1ccc(OCCOC)c(CCC2(C3CCCC3)CC(O)=C(Cc3nc4nc(C)cc(C)n4n3)C(=O)O2)c1` (centres unmarked) [A(177), 6-Cyclopentyl-3-(5,7-dimethyl-[1,2,4]triazolo[1,5-a]pyrimidin-2-ylmethyl)-6-{2-[5-ethyl-2-(2-methoxy-ethoxy)-phenyl]-ethyl}-4-hydroxy-5,6-dihydro-pyran-2-one] here?
**A.** 14 nM

**Q.** For `CCc1ccc(OCCOC)c(CCC2(C3CCCC3)CC(=O)CC(=O)O2)c1` (centres unmarked) [A(178), 6-Cyclopentyl-6-{2-[5-ethyl-2-(2-methoxy-ethoxy)-phenyl]-ethyl}-dihydro-pyran-2,4-dione], which IC50 is on record?
**A.** 1300 nM

**Q.** Which IC50 does the source give for `CCc1ccc(OCCOC)c(CCC2(C3CCCC3)CC(O)=C(Cc3nc4ncc(C)cn4n3)C(=O)O2)c1` (centres unmarked) [A(179), 6-Cyclopentyl-6-{2-[5-ethyl-2-(2-methoxy-ethoxy)-phenyl]-ethyl}-4-hydroxy-3-(6-methyl-[1,2,4]triazolo[1,5-a]pyrimidin-2-ylmethyl)-5,6-dihydro-pyran-2-one] here?
**A.** 5 nM

**Q.** Which IC50 does the source give for `CCc1cc(CCC2(C3CCCC3)CC(O)=C(Cc3nc4nc(C)cc(C)n4n3)C(=O)O2)c2c(c1O)CCO2` (centres unmarked) [A(180), 6-Cyclopentyl-3-(5,7-dimethyl-[1,2,4]triazolo[1,5-a]pyrimidin-2-ylmethyl)-6-[2-(5-ethyl-4-hydroxy-2,3-dihydro-benzofuran-7-yl)-ethyl]-4-hydroxy-5,6-dihydro-pyran-2-one] here?
**A.** 10 nM

**Q.** How did the IC50 turn out when `CCc1cc(CCC2(C3CCCC3)CC(=O)CC(=O)O2)c2c(c1O)CCO2` (centres unmarked) [A(181), 6-Cyclopentyl-6-[2-(5-ethyl-4-hydroxy-2,3-dihydro-benzofuran-7-yl)-ethyl]-dihydro-pyran-2,4-dione] was run?
**A.** 600 nM

**Q.** `CCc1cc(CCC2(C3CCCC3)CC(O)=C(Cc3nc4ncc(C)cn4n3)C(=O)O2)c2c(c1O)CCO2` (centres unmarked) [A(182), 6-Cyclopentyl-6-[2-(5-ethyl-4-hydroxy-2,3-dihydro-benzofuran-7-yl)-ethyl]-4-hydroxy-3-(6-methyl-[1,2,4]triazolo[1,5-a]pyrimidin-2-ylmethyl)-5,6-dihydro-pyran-2-one] was tested. Which IC50 did it give?
**A.** 4 nM

**Q.** Which IC50 does the source give for `CCc1cc(CCC2(C3CCCC3)CC(O)=C(Cc3nc4nc(C)cc(C)n4n3)C(=O)O2)ccc1OCCOC` (centres unmarked) [A(183), 6-Cyclopentyl-3-(5,7-dimethyl-[1,2,4]triazolo[1,5-a]pyrimidin-2-ylmethyl)-6-{2-[3-ethyl-4-(2-methoxy-ethoxy)-phenyl]-ethyl}-4-hydroxy-5,6-dihydro-pyran-2-one] here?
**A.** 7 nM

**Q.** `CCc1cc(CCC2(C3CCCC3)CC(=O)CC(=O)O2)ccc1OCCOC` (centres unmarked) [A(184), 6-Cyclopentyl-6-{2-[3-ethyl-4-(2-methoxy-ethoxy)-phenyl]-ethyl}-dihydro-pyran-2,4-dione] was tested. Which IC50 did it give?
**A.** 520 nM

**Q.** Which IC50 does the source give for `CCc1cc(CCC2(C3CCCC3)CC(O)=C(Cc3nc4ncc(C)cn4n3)C(=O)O2)ccc1OCCOC` (centres unmarked) [A(185), 6-Cyclopentyl-6-{2-[3-ethyl-4-(2-methoxy-ethoxy)-phenyl]-ethyl}-4-hydroxy-3-(6-methyl-[1,2,4]triazolo[1,5-a]pyrimidin-2-ylmethyl)-5,6-dihydro-pyran-2-one] here?
**A.** 8 nM

**Q.** With `CCc1cc(O)cc(CCC2(C3CCCC3)CC(O)=C(Cc3nc4nc(C)cc(C)n4n3)C(=O)O2)c1` (centres unmarked) [A(186), 6-Cyclopentyl-3-(5,7-dimethyl-[1,2,4]triazolo[1,5-a]pyrimidin-2-ylmethyl)-6-[2-(3-ethyl-5-hydroxy-phenyl)-ethyl]-4-hydroxy-5,6-dihydro-pyran-2-one] as the compound, how does the IC50 read?
**A.** 40 nM

**Q.** `CCc1cc(CCC2(C3CCCC3)CC(O)=C(Cc3nc4nc(C)cc(C)n4n3)C(=O)O2)c(O)cc1OC` (centres unmarked) [A(187), 6-Cyclopentyl-3-(5,7-dimethyl-[1,2,4]triazolo[1,5-a]pyrimidin-2-ylmethyl)-6-[2-(5-ethyl-2-hydroxy-4-methoxy-phenyl)-ethyl]-4-hydroxy-5,6-dihydro-pyran-2-one] was tested. Which IC50 did it give?
**A.** 4 nM

**Q.** With `Cc1cc(C)n2nc(CC3=C(O)CC(CCc4ccc(C5(C#N)CCCC5)c(F)c4)(C4CCCC4)OC3=O)nc2n1` (centres unmarked) [A(188), 1-(4-{2-[2-Cyclopentyl-5-(5,7-dimethyl-[1,2,4]triazolo[1,5-a]pyrimidin-2-ylmethyl)-4-hydroxy-6-oxo-3,6-dihydro-2H-pyran-2-yl]-ethyl}-2-fluoro-phenyl)-cyclopentanecarbonitrile] as the compound, how does the IC50 read?
**A.** 6 nM

**Q.** How did the IC50 turn out when `N#CC1(c2ccc(CCC3(C4CCCC4)CC(=O)CC(=O)O3)cc2F)CCCC1` (centres unmarked) [A(189), 1-{4-[2-(2-Cyclopentyl-4,6-dioxo-tetrahydro-pyran-2-yl)-ethyl]-2-fluoro-phenyl}-cyclopentanecarbonitrile] was run?
**A.** 2900 nM

**Q.** For `Cc1cnc2nc(CC3=C(O)CC(CCc4ccc(C5(C#N)CCCC5)c(F)c4)(C4CCCC4)OC3=O)nn2c1` (centres unmarked) [A(190), 1-(4-{2-[2-Cyclopentyl-4-hydroxy-5-(6-methyl-[1,2,4]triazolo[1,5-a]pyrimidin-2-ylmethyl)-6-oxo-3,6-dihydro-2H-pyran-2-yl]-ethyl}-2-fluoro-phenyl)-cyclopentanecarbonitrile], which IC50 is on record?
**A.** 11 nM

**Q.** With `N#CC1(c2ccc(CCC3(C4CCCC4)CC(O)=C(Cc4nc5ncc(Cl)cn5n4)C(=O)O3)cc2F)CCCC1` (centres unmarked) [A(191), 1-(4-{2-[5-(6-Chloro-[1,2,4]triazolo[1,5-a]pyrimidin-2-ylmethyl)-2-cyclopentyl-4-hydroxy-6-oxo-3,6-dihydro-2H-pyran-2-yl]-ethyl}-2-fluoro-phenyl)-cyclopentanecarbonitrile] as the compound, how does the IC50 read?
**A.** 17 nM
